Test results reported in patent publication US12486267B2, “Imidazo[1,2-A]pyridine and [1,2,4]triazolo[1,5-A]pyridine derivatives as TLR9 inhibitors for the treatment of fibrosis” (BRISTOL-MYERS SQUIBB COMPANY, priority 2020, dated 2025).

What was measured:
Assay type in all cases: cell-based
[1] = target: T1, human TLR9 (Homo sapiens, UniProt Q9NR96); test: TLR9 inhibition reporter assay (HEK-Blue cells, SEAP reporter); settings: HEK-Blue cells overexpressing human TLR9; stimulated with ODN2006 5 nM; 22 hour incubation; SEAP readout
T1 sequence (Q9NR96 26-1032): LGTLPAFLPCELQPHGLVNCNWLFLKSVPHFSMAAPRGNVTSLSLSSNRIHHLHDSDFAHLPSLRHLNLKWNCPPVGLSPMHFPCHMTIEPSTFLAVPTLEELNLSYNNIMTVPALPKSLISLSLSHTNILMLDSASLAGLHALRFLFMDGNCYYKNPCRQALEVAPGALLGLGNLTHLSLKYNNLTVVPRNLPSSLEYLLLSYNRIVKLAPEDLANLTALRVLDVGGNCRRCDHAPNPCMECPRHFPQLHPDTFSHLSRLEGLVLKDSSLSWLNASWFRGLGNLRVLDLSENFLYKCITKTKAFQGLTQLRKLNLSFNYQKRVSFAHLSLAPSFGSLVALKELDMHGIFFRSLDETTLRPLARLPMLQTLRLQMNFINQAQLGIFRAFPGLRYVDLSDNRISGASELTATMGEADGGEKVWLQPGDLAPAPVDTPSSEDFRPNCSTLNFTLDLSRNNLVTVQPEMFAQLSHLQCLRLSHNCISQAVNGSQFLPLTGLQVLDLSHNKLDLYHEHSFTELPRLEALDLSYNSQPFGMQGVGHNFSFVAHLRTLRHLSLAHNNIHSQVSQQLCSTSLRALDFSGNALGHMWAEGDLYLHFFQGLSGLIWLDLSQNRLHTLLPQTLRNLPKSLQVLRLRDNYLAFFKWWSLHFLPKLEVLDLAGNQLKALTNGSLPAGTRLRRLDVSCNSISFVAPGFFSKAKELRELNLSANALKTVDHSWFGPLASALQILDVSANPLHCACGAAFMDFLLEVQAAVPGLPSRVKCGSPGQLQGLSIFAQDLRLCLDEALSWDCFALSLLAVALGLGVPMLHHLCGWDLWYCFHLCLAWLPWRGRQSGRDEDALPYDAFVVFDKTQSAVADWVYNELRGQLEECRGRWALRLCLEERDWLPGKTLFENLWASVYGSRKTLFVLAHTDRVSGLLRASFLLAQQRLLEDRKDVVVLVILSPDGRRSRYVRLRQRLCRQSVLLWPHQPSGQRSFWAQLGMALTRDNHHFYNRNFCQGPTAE
Experimental: (§1) TLR7/8/9 Inhibition Reporter Assays
(§2) HEK-Blue™-cells (Invivogen) overexpressing human TLR7, TLR8 or TLR9 receptors were used for screening inhibitors of these receptors using an inducible SEAP (secreted embryonic alkaline phosphatase) reporter gene under the control of the […] minimal promoter fused to five NF-κB and AP-1-binding sites. Briefly, cells are seeded into Greiner 384 well plates (15000 cells per well for TLR7, 20,000 for TLR8 and 25,000 for TLR9) and then treated with test compounds in DMSO to yield a final dose response concentration range of 0.05 nM-50 μM. After a 30 minute compound pre-treatment at room temperature, the cells are then stimulated with a TLR7 ligand (gardiquimod at a final concentration of 7.5 μM), TLR8 ligand (R848 at a final concentration of 15.9 μM) or TLR9 ligand (ODN2006 at a final concentration of 5 nM) to activate NF-κB and AP-1 which induce the production of SEAP. After a 22 hour incubation at 37° C., 5% CO2, SEAP levels are determined with the addition of HEK-Blue™ Detection reagent (Invivogen), a cell culture medium that allows for detection of SEAP, according to manufacturer's specifications. The percent inhibition is determined as the % reduction in the HEK-Blue signal present in wells treated with agonist plus DMSO alone compared to wells treated with a known inhibitor.

[2] = target: T2, human TLR7 (Homo sapiens, UniProt Q9NYK1); test: TLR7 inhibition reporter assay (HEK-Blue cells, SEAP reporter); settings: HEK-Blue cells overexpressing human TLR7; stimulated with gardiquimod 7.5 μM; 22 hour incubation; SEAP readout
T2 sequence (Q9NYK1 27-1049): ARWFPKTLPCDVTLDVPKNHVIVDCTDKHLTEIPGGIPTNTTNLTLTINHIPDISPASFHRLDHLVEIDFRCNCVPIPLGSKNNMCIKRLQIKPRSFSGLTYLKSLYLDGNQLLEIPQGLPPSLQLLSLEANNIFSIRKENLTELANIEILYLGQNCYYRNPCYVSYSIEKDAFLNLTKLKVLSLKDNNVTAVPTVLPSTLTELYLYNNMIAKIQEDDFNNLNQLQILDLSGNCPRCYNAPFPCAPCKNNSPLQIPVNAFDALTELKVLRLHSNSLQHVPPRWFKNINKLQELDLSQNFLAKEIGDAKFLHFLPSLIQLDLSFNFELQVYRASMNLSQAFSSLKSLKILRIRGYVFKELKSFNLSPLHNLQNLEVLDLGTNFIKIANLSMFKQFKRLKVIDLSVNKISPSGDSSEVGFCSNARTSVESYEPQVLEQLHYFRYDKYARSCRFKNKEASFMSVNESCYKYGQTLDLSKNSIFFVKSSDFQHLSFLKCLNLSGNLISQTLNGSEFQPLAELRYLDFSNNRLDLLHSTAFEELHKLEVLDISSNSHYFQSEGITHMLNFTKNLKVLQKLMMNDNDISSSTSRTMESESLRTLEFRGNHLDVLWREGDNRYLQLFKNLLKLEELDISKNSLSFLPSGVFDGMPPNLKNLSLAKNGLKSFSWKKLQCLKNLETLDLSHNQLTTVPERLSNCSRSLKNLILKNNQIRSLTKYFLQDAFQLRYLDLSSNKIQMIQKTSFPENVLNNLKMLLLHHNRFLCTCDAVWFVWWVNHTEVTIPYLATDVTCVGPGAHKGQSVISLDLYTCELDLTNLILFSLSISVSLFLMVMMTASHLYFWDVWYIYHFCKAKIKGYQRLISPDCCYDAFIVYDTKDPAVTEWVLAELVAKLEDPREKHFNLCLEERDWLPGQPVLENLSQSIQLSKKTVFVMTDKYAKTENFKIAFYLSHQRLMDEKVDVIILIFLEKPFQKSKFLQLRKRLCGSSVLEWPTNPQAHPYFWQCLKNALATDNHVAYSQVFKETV
Experimental: as §1, §2

[3] = target: T3, human TLR8 (Homo sapiens, UniProt Q9NR97); test: TLR8 inhibition reporter assay (HEK-Blue cells, SEAP reporter); settings: HEK-Blue cells overexpressing human TLR8; stimulated with R848 15.9 μM; 22 hour incubation; SEAP readout
T3 sequence (Q9NR97 27-1041): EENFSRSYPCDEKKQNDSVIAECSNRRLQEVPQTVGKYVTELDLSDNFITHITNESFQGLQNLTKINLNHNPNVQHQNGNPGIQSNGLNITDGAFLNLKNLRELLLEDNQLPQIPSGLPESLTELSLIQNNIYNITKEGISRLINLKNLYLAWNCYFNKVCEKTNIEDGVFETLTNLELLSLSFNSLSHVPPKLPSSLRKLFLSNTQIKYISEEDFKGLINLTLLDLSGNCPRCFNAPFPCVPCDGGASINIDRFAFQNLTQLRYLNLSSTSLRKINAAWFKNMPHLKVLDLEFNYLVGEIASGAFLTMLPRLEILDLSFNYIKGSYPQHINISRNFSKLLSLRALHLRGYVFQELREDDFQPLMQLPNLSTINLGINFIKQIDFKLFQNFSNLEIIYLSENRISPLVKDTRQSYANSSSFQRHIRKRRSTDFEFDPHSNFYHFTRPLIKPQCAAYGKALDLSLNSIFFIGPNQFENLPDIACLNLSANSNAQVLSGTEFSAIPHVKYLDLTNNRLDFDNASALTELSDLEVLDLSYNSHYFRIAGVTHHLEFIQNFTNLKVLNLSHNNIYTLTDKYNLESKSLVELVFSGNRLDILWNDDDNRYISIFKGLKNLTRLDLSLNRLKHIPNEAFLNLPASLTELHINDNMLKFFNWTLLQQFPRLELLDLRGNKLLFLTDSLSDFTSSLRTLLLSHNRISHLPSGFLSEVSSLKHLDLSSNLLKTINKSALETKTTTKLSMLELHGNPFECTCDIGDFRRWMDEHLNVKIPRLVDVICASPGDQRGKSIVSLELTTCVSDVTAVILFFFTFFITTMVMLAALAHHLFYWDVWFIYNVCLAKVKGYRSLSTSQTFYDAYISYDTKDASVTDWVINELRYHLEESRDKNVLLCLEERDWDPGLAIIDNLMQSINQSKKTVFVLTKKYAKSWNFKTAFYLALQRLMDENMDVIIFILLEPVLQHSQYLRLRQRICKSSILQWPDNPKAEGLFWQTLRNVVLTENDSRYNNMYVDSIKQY
Experimental: as §1, §2

SMILES | IC50 [1] | IC50 [2] | IC50 [3]
COc1ccc(-c2cn3c(n2)CC(C2CCN(C4CCN(CC(C)C)CC4)CC2)CC3)cc1OC (racemic) [Example 59, 2-(3,4-dimethoxyphenyl)-7-(1′-isobutyl-[1,4′-bipiperidin]-4-yl)-5,6,7,8-tetrahydroimidazo[1,2-a]pyridine] | 0.205 µM | 7.7 µM | > 50 µM
COc1ccc(-c2cn3cc(C4C[C@H]5CC[C@@H](C4)N5C4CCN(C5CC5)CC4)cc(C)c3n2)cc1OC (mixture of isomers) [Example 24, 6-(8-(1-cyclopropylpiperidin-4-yl)-8-azabicyclo[3.2.1]octan-3-yl)-2-(3,4-dimethoxyphenyl)-8-methylimidazo[1,2-a]pyridine] | 0.102 µM | 2.9 µM | > 50 µM
CS(=O)(=O)c1ccc(-c2cn3cc(C4CCN(C5CC6CCC(C5)N6C5COC5)CC4)cc(F)c3n2)cc1 (single isomer, unassigned) [Example 120, 8-fluoro-2-(4-(methylsulfonyl)phenyl)-6-(1-(8-(oxetan-3-yl)-8-azabicyclo[3.2.1]octan-3-yl)piperidin-4-yl)imidazo[1,2-a]pyridine] | 0.709 µM | 16.7 µM | > 50 µM
CC(C)CN1C2CCC1CC(N1CCC([C@@H]3CCc4nc(-c5ccc(S(C)(=O)=O)cc5)cn4C3)CC1)C2 (single isomer, unassigned) [Example 82] | 0.021 µM | 9.2 µM | > 50 µM
COc1ccc(-c2cn3c(n2)CC(C2CCN(C4CCN(C(C)C)CC4)CC2)CC3)cc1OC (racemic) [Example 58, 2-(3,4-dimethoxyphenyl)-7-(1′-isopropyl-[1,4′-bipiperidin]-4-yl)-5,6,7,8-tetrahydroimidazo[1,2-a]pyridine] | 0.06 µM | 13 µM | 15 µM
COc1ccc(-c2cn3cc(C4CCN(C5CC6(C5)CN(CC(C)C)C6)CC4)cc(C)c3n2)cc1OC [Example 15, 2-(3,4-dimethoxyphenyl)-6-(1-(2-isobutyl-2-azaspiro[3.3]heptan-6-yl)piperidin-4-yl)-8-methylimidazo[1,2-a]pyridine] | 0.047 µM | 46 µM | > 50 µM
Cc1cc(C2CCN(C3CCN(CC4CC4)CC3)CC2)cn2cc(-c3ccc(S(C)(=O)=O)cc3)nc12 [Example 92, 6-(1′-(cyclopropylmethyl)-[1,4′-bipiperidin]-4-yl)-8-methyl-2-(4-(methylsulfonyl)phenyl)imidazo[1,2-a]pyridine] | 0.05 µM | 3.5 µM | > 25 µM
COc1ccc(-c2cn3c(n2)CCC(C2CCN(C4CCN(C(C)C)CC4)CC2)C3)cc1OC (single isomer, unassigned) [Example 36, 2-(3,4-dimethoxyphenyl)-6-(1′-isopropyl-[1,4′-bipiperidin]-4-yl)-5,6,7,8-tetrahydroimidazo[1,2-a]pyridine] | 0.057 µM | 7.8 µM | > 50 µM
Cc1cc(-c2ccc(N3CCN(CC4CCC4)CC3)cc2)cn2cc(-c3ccc(S(C)(=O)=O)cc3)nc12 [Example 101, 6-(4-(4-(cyclobutylmethyl)piperazin-1-yl)phenyl)-8-methyl-2-(4-(methylsulfonyl)phenyl)imidazo[1,2-a]pyridine] | 0.803 µM | 18.4 µM | 14 µM
Cc1cc(C2CCN(C3CCN(C(C)C)CC3)CC2)cn2nc(-c3ccc(S(C)(=O)=O)cc3)nc12 [Example 162, 6-(1′-isopropyl-[1,4′-bipiperidin]-4-yl)-8-methyl-2-(4-(methylsulfonyl)phenyl)-[1,2,4]triazolo[1,5-a]pyridine] | 0.079 µM | 6.9 µM | > 50 µM
COc1ccc(-c2cn3cc(-c4ccc(N5CCN(C6CCOCC6)CC5)cc4)cc(C)c3n2)cc1OC [Example 97, 2-(3,4-dimethoxyphenyl)-8-methyl-6-(4-(4-(tetrahydro-2H-pyran-4-yl)piperazin-1-yl)phenyl) imidazo[1,2-a]pyridine] | 2.1 µM | > 50 µM | > 25 µM
COc1ccc(-c2cn3cc(C4C[C@H]5CC[C@@H](C4)N5C4CCN(C(C)C)CC4)cc(C)c3n2)cc1OC (mixture of isomers) [Example 30, 2-(3,4-dimethoxyphenyl)-6-(8-(1-isopropylpiperidin-4-yl)-8-azabicyclo[3.2.1]octan-3-yl)-8-methylimidazo[1,2-a]pyridine] | 0.037 µM | 1.4 µM | > 50 µM
